Experimental data: ChEMBL document CHEMBL4680361, “Degradation of Janus Kinase for Potential Application in Immune Response Therapeutics” (ACS Med Chem Lett, 2021)
Active and inactive are the calls of the source. The rule behind the calls is not given here.

Columns and labels:
RS4-11 = experiment: Cytotoxicity against human RS4-11 cells assessed as reduction in cell viability measured after 3 days by CellTiter-Glo assay; assay type: functional, cell-based; settings: RS4-11, 72 h
[1] = biological target: Protein cereblon/Tyrosine-protein kinase JAK1 (Homo sapiens, UniProt P23458+Q96SW2); experiment: Protac activity at CRBN/JAK1 in human RS4-11 cells assessed as degradation of JAK1 measured after 24 hrs by immunoblotting analysis; assay type: cell-based
Sequence of Protein cereblon/Tyrosine-protein kinase JAK1 (P23458 whole entry): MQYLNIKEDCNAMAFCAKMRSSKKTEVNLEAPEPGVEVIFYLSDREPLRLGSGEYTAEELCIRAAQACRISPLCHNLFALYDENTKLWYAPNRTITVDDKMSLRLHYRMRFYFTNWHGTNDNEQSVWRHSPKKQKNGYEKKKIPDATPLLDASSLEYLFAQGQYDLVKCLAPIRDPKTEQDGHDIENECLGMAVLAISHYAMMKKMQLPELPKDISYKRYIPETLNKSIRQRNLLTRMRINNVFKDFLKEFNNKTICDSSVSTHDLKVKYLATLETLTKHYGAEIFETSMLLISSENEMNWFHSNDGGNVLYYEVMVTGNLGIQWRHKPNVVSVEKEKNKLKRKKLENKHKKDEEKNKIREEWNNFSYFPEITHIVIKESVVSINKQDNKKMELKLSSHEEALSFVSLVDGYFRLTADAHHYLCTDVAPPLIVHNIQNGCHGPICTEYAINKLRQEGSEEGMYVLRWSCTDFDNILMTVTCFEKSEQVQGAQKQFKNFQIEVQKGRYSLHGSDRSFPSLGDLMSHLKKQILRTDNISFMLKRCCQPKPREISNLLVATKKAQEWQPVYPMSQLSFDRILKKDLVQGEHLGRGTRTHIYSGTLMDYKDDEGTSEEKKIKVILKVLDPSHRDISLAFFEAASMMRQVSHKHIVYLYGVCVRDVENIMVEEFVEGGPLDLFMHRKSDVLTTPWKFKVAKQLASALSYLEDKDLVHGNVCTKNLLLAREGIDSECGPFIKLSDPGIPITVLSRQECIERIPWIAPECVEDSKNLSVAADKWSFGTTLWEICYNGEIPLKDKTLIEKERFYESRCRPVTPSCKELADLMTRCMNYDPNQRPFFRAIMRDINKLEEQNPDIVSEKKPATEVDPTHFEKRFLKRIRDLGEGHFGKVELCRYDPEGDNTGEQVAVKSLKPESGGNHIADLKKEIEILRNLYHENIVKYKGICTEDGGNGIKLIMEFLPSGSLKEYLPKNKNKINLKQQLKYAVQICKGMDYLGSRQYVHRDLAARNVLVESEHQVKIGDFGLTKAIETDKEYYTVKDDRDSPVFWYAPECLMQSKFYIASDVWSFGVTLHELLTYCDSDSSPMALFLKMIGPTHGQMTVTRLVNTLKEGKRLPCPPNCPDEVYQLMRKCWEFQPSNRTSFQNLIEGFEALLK
Sequence of Protein cereblon/Tyrosine-protein kinase JAK1 (Q96SW2 whole entry): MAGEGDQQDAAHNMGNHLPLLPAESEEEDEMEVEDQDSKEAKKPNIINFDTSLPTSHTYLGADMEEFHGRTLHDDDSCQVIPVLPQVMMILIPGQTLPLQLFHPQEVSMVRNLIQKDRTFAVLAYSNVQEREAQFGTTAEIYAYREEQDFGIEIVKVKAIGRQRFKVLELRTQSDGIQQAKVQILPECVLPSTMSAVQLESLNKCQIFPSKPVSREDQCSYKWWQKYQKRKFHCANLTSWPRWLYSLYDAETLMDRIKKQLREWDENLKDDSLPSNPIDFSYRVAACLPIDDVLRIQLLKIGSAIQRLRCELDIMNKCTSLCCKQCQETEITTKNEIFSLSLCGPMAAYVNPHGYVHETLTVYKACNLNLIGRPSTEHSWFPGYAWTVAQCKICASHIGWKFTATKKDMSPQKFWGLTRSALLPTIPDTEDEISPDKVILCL

IMR-90 = experiment: Cytotoxicity against human IMR-90 cells assessed as effect on cell viability at 10^-10 to 10^-5 M measured after 3 days by CellTiter-Glo assay; assay type: cell-based; settings: imr-90, 72 h, dose 0.0001-10 µM, time 3 day
HaCaT = experiment: Cytotoxicity against human HaCaT cells assessed as effect on cell viability at 10^-10 to 10^-5 M measured after 3 days by CellTiter-Glo assay; assay type: cell-based; settings: 72 h, dose 0.0001-10 µM, time 3 day
[2] = system: Protein cereblon/Tyrosine-protein kinase JAK2 (Homo sapiens), O60674+Q96SW2 [UNDEFINED MUTATION]; experiment: Protac activity at CRBN/JAK2 V617 mutant in human HEL cells assessed as decrease in JAK2 V617 mutant protein level at < 60 nM measured after 24 hrs by immunoblotting analysis; assay type: cell-based; settings: dose nM <60, time 24.0 hrs
Sequence of Protein cereblon/Tyrosine-protein kinase JAK2 (Homo sapiens), O60674+Q96SW2 [UNDEFINED MUTATION] (O60674 whole entry, looked up, change not shown): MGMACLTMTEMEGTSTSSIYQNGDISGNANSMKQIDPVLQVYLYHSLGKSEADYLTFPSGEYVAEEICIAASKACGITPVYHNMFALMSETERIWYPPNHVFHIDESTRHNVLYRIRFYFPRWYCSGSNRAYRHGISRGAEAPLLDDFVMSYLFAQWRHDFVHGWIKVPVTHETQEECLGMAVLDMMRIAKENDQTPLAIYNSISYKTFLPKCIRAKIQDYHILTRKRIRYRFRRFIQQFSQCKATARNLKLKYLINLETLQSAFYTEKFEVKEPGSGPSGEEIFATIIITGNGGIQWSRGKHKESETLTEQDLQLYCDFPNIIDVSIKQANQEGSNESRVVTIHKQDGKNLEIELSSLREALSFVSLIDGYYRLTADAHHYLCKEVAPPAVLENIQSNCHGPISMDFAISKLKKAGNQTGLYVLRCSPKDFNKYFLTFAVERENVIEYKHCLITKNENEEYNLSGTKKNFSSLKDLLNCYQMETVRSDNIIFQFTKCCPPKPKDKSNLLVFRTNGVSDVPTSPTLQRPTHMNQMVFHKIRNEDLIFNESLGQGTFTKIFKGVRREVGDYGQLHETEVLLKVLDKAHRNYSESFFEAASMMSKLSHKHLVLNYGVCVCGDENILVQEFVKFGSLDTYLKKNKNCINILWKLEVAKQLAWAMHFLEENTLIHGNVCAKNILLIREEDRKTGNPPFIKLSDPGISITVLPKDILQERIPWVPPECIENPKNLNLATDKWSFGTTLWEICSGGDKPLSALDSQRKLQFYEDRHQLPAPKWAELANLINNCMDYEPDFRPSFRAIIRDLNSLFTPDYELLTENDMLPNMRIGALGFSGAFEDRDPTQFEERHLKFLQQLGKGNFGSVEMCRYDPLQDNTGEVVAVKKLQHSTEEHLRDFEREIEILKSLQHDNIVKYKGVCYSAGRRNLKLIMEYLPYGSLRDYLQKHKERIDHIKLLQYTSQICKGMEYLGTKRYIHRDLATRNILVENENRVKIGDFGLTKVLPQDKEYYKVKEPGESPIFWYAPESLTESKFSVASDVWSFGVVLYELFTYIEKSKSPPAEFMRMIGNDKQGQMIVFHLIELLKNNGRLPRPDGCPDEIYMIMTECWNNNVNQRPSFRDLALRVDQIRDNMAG
Sequence of Protein cereblon/Tyrosine-protein kinase JAK2 (Homo sapiens), O60674+Q96SW2 [UNDEFINED MUTATION] (Q96SW2 whole entry, looked up, change not shown): as the sequence (Q96SW2 whole entry) above

Structure (SMILES)	IC50 (RS4-11) [nM]	further results
O=C1CCC(N2Cc3ccc(OCCCCCCC(=O)N4CCC(n5cc(-c6cnc7cccc(-c8cc(F)c(CN9CCOCC9)c(F)c8)c7n6)cn5)CC4)cc3C2=O)C(=O)N1 (configuration not stated)	3.8	
CS(=O)(=O)c1ccc(-c2cccc3nc(Nc4ccc(N5CCN(C(=O)CCCCCCOc6ccc7c(c6)C(=O)N(C6CCC(=O)NC6=O)C7)CC5)cc4)nn23)cc1 (configuration not stated)	5.4	
O=C1CCC(N2C(=O)c3ccc(NCCCCC(=O)N4CCC(n5cc(-c6cnc7cccc(-c8cc(F)c(CN9CCOCC9)c(F)c8)c7n6)cn5)CC4)cc3C2=O)C(=O)N1 (configuration not stated)	13.8	
O=C1CCC(N2C(=O)c3ccc(NCCCCCC(=O)N4CCC(n5cc(-c6cnc7cccc(-c8cc(F)c(CN9CCOCC9)c(F)c8)c7n6)cn5)CC4)cc3C2=O)C(=O)N1 (configuration not stated)	2.03	DC50 [1]: < 5 nM; Activity (IMR-90): Non-Toxic; Activity (HaCaT): Non-Toxic
CS(=O)(=O)c1ccc(-c2cccc3nc(Nc4ccc(N5CCN(CC(=O)NCCCCCCCNc6ccc7c(c6)C(=O)N(C6CCC(=O)NC6=O)C7=O)CC5)cc4)nn23)cc1 (configuration not stated)	63.5	
CS(=O)(=O)c1ccc(-c2cccc3nc(Nc4ccc(N5CCN(C(=O)CCCCCNc6ccc7c(c6)C(=O)N(C6CCC(=O)NC6=O)C7=O)CC5)cc4)nn23)cc1 (configuration not stated)	7.3	
CS(=O)(=O)c1ccc(-c2cccc3nc(Nc4ccc(N5CCN(C(=O)CCCCCOc6ccc7c(c6)CN(C6CCC(=O)NC6=O)C7=O)CC5)cc4)nn23)cc1 (configuration not stated)	32.8	
O=C1CCC(N2Cc3cc(OCCCCCC(=O)N4CCC(n5cc(-c6cnc7cccc(-c8cc(F)c(CN9CCOCC9)c(F)c8)c7n6)cn5)CC4)ccc3C2=O)C(=O)N1 (configuration not stated)	3.6	
O=C1CCC(N2C(=O)c3ccc(NCCCCCCCC(=O)N4CCC(n5cc(-c6cnc7cccc(-c8cc(F)c(CN9CCOCC9)c(F)c8)c7n6)cn5)CC4)cc3C2=O)C(=O)N1 (configuration not stated)	54.4	
CS(=O)(=O)c1ccc(-c2cccc3nc(Nc4ccc(N5CCN(CC(=O)NCCCCCCCCNc6ccc7c(c6)C(=O)N(C6CCC(=O)NC6=O)C7=O)CC5)cc4)nn23)cc1 (configuration not stated)	8.45	Activity [2]: Active; DC50 [1]: < 35 nM; Activity (IMR-90): Non-Toxic; Activity (HaCaT): Non-Toxic
